Assay results published in patent US5708018A, “2-aminoindans as selective dopamine D3 ligands” (Pharmacia & Upjohn Company, priority 1996, dated 1998).
Read-outs that look alike come from different tables or passages of the source.

Columns and labels:
D2 = biological target: T1, D2 (Rattus norvegicus, UniProt P61169); assay: Competition binding, cloned mammalian D2 receptors expressed in CHO-K1 cells, [3H]-5-(dipropylamino)-5,6-dihydro-4H-imidazo(4,5,1-ij)quinolin-2(1H)-one (R-enantiomer); settings: radioligand 2 nM, IC50 from one-site fit, Ki by Chen-Prushoff equation
T1 construct: expressed in transfected cells; host or cells: CHO-K1
T1 sequence (P61169 whole entry): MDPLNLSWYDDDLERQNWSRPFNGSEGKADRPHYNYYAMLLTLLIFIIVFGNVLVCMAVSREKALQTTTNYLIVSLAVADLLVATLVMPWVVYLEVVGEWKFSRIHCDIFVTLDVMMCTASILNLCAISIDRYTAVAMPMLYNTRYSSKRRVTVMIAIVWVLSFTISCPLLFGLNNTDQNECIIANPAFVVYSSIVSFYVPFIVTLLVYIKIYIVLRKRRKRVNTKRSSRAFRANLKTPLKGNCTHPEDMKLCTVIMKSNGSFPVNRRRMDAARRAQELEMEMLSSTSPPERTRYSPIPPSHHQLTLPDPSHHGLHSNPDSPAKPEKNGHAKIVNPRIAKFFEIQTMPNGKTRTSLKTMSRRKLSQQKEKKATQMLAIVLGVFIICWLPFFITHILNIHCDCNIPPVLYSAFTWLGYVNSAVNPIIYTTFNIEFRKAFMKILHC
Experimental: (§1) Competition binding experiments employed eleven dilutions of test compounds competing with [^3 H]-5-(dipropylamino)-5,6-dihydro-4H-imidazo(4,5,1-ij)quinolin-2(1H)-one (R-enantiomer) (62 Ci/mmol, 2 nM) and [^3 H]-spiperone (107 Ci/mmol, 0.5 nM) for D2 and D3 binding sites, respectively. (Lahti, R. A., Eur. J. Pharmacol., 202, 289 (1991)) In each experiment, cloned mammalian receptors expressed in CHO-K1 cells were used. (Chio, C. L., Nature, 343, 266 (1990); and Huff, R. M., Mol. Pharmacol. (1993), in press). IC50 values were estimated by fitting the data to a one-site model by non-linear least squares minimization. Ki values were calculated with the Chen-Prushoff equation.

D3 = biological target: T2, D3 (Rattus norvegicus, UniProt P19020); assay: Competition binding, cloned mammalian D3 receptors expressed in CHO-K1 cells, [3H]-spiperone
T2 construct: expressed in transfected cells; host or cells: CHO-K1
T2 sequence (P19020 whole entry): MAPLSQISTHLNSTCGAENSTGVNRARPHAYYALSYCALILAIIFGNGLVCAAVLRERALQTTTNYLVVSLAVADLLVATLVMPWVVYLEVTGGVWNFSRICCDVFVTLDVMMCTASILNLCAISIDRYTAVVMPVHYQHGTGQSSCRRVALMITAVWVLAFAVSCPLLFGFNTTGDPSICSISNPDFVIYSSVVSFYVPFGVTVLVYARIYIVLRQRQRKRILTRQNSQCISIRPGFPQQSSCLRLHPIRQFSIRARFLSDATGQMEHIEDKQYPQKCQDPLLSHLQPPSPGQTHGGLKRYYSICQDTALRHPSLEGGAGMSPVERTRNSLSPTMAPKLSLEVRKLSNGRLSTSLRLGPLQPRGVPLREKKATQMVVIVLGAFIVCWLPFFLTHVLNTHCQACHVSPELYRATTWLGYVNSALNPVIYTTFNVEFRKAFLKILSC
Experimental: as §1

[1] = cloned mammalian receptors in CHO-K1 cells, [3H]-spiperone 0.5 nM, IC50 from one-site fit, Ki by Chen-Prushoff equation, read-out: D3 (ki)

CCCN(CCC)C1Cc2ccc(OS(=O)(=O)C(F)(F)F)cc2C1 (centres unmarked) [Example 2]
Ki (D2): 350 nM | Ki (D3): 31 nM

CCCN(CCC)C1Cc2cc(O)c(C(=O)OC)cc2C1 (centres unmarked) [Example 10, 5-(carbomethoxy)-6-hydroxy-2-(di-N-propylamino)indan]
Ki (D2): 121 nM | Ki (D3): 6.5 nM

CCCN(CCC)C1Cc2ccc(OS(=O)(=O)c3ccc(C)cc3)cc2C1 (centres unmarked) [Example 17, Toluene-4-sulfonic acid 2-dipropylamino-indan-5-yl ester]
Ki (D2): 108 nM | Ki (D3; [1]): 3.7 nM

CCCN(CCC)C1Cc2cc(OS(=O)(=O)c3ccc(C)cc3)c(OS(=O)(=O)c3ccc(C)cc3)cc2C1 [Example 32, 5,6 di-toluenesulfonyloxy-2-(di-n-propylamino)indan]
Ki (D2): 291 nM | Ki (D3; [1]): 45 nM
